Earlier results, collected in US7932083B2, “DNA participating in hydroxylation of macrolide compound” (priority 2003, dated 2011).

Details: statement of prior art (WO02/060890)

For `CCC(O)C(C)C1OC1CC(C)(O)/C=C/C=C(\C)C1OC(=O)CC(O)CCC(C)(O)C(OC(C)=O)/C=C/C1C` (stereo not shown) [11107D], the antitumor activity is given as “excellent antitumor activity”.
